Data set [1] deals with human primary foreskin fibroblast (HFF) cells. Description: cells. To be noted: 72 h, read-out: EC50 (HFF).
The nature of the next data set: in vitro. To be noted: human.
For another data set, the system named is L-929 mouse fibroblasts. Briefly: MTT test, growth inhibition of L-929 mouse fibroblasts. The data set is classed as cell-based. To be noted: read-out: IC50 (L929), 5 d incubation, MTT assay. On the technique in general: Tetrazolium assays rely on reduction of a dye to a coloured formazan, in cell work by metabolically active cells.
Data set [2] relates to human primary foreskin fibroblast (HFF) cells. To be noted: read-out: EC50 (HFF), viable cells after 72 h, triplicates.

For four molecules, EC50 and IC50 results are on record in paper PMC3228261 (Chemistry (Weinheim an der Bergstrasse, Germany), 2011).

Like-named read-outs stand apart in the source and are kept apart here.

Consider `C/C1=C\[C@H](C)C[C@H](C)OC(=O)C[C@H](c2ccc(O)cc2)NC(=O)[C@@H](Cc2c(Br)[nH]c3ccccc23)N(C)C(=O)[C@H](C)NC(=O)[C@@H](C)C1` [jasplakinolide_np (1), jasplakinolide], for which, in data set [1], the 50% effective concentration (EC50) was 0.028 ± 0.004 µM. This molecule also returned an EC50 at 72 h in “in vitro” of about 0.03 µM.
As to `CO[C@@H]1C(=O)O[C@H](C)[C@H](C)/C=C(\C)C[C@H](C)C(=O)N[C@@H](C)C(=O)N(C)[C@H](Cc2c[nH]c3ccccc23)C(=O)N[C@H]1c1ccc(O)cc1` [chon A_np (2a), chondramide A], the IC50 in the data set on L-929 mouse fibroblasts is 0.056 ± 0.013 µM. Further, the EC50 in data set [2] was 0.118 ± 0.023 µM.
For the molecule `CO[C@@H]1C(=O)O[C@H](C)[C@@H](C)C=C(C)C[C@H](C)C(=O)N[C@@H](C)C(=O)N(C)[C@H](Cc2c(Cl)[nH]c3ccccc23)C(=O)NC1c1ccc(O)cc1` (stereo partly drawn) [chon B_np (3), chondramide B], the 50% effective concentration (EC50) in data set [2] was 0.044 ± 0.005 µM.
Regarding `C/C1=C\[C@@H](C)[C@@H](C)OC(=O)C[C@H](c2ccc(O)cc2)NC(=O)[C@@H](Cc2c[nH]c3ccccc23)N(C)C(=O)[C@H](C)NC(=O)[C@@H](C)C1` [chon C_np (4), chondramide C], the EC50 in data set [2] was 0.036 ± 0.007 µM.

As a reminder, the EC50 is the concentration that produces a half-maximal response. As usually defined, the IC50 is the concentration needed to halve the response being measured.
